Molecules are shown by their SMILES. The source made the active and inactive calls.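 How the source made its calls: active means IC50 of 20 µM or lower; inactive means the rest.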

The assay relates to HL-1 cardiomyocytes, H2O2 injury, ATP luminescence, 2 h. In words: H2O2-induced HL-1 cell death suppression – ATP luminescence, dose response (AID 602215).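 Further: potency is for protection so actives raise ATP signal against peroxide damage.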
With `CC(=O)Nc1cccc(-c2cc(NC(C)=O)c3ncc(-c4ccccc4)n3c2)c1`, the IC50 is > 79 µM (inactive). Regarding `COC(=O)c1ccc(N)c(N=CC2=C(O)CC(C)(C)CC2=O)c1`, the IC50 is 41.4 µM (inactive). In the case of `C=CC[C@@H](CC(=O)NCCO)C(=O)NC[C@H](OC(=O)[C@@H](CC=C)Cc1ccc(F)cc1)c1ccccc1` it was > 79 µM (inactive). Next, `COc1ccc(/C=N/NC(=O)c2ccc(COc3cccc4cccnc34)cc2)cc1OC`: 6.02 µM. As for `CCOc1ccccc1Nc1nnc(SCc2nnc(-c3cc(OC)c(OC)c(OC)c3)o2)s1`, the IC50 is 10 µM. As for `COc1cc(-c2cc(C(=O)OCC(=O)NC3CC3)c3ccccc3n2)cc(OC)c1OC`, the IC50 was 12.7 µM. `COc1ccc(-c2cc(-c3nnc(COC(=O)C4CC4C)o3)c3ccccc3n2)cc1OC` (stereo not given): the IC50 is 3.49 µM. In the case of `Cc1cccc(NC(=O)c2oc3ccc(S(=O)(=O)N4CCOCC4)cc3c2C)c1C`, the IC50 is 4.13 µM. Take `COc1ccc(C(C(=O)NC2CCCC2)N(C(=O)c2snc(C(N)=O)c2N)c2cccc(O)c2)cc1` (stereo not given): the IC50 is 23.9 µM (inactive). As to `CC(=O)c1cccc(Nc2nc3ccccc3n3cnnc23)c1`, the IC50 is > 79 µM (inactive). As for `C[C@H](NC(=O)c1nc[nH]c1C(=O)NCC(=O)OCc1ccccc1)c1ccccc1`, the IC50 is > 79 µM (inactive). `O=C(c1ccc(-c2nc3ccccc3s2)o1)N1CCN(c2ccccc2O)CC1`: the IC50 was > 79 µM (inactive).

As for `Brc1cc2c(cc1/C=N/Nc1nc(N3CCCC3)nc(N3CCOCC3)n1)OCO2`, the IC50 was 10.9 µM. Consider `COc1cc(-c2cc(NC(C)=O)c3ncc(-c4cc(OC)c(OC)c(OC)c4)n3c2)cc(OC)c1OC`, for which the IC50 was 1.48 µM. As to `CC(C)OCCCNC(=O)CCC(=O)NNc1nc2ccccc2c2nc(-c3ccccc3)nn12`, the IC50 is > 79 µM (inactive).

As to `COc1cc(Nc2nc3ccccc3n3nnnc23)cc(OC)c1OC`, the IC50 was > 79 µM (inactive). As for `COc1ccc(-c2csc(NC(=O)c3cccc(N4C(=O)CCC4=O)c3)n2)cc1OC`, the IC50 was > 79 µM (inactive). Regarding `COc1ccc(-c2ccc3c(c2)S(=O)(=O)c2cccc(C(=O)N4CCN(c5c(Cl)cncc5Cl)CC4)c2C3=O)cc1OC`, the IC50 was > 79 µM (inactive). `N#Cc1c(-c2ccco2)cc(-c2cccnc2)nc1N`: the IC50 was 41.2 µM (inactive). Take `Cc1ccccc1N(C(=O)c1snc(C(N)=O)c1N)C(C(=O)NCc1ccccc1)c1ccc(O)cc1` (stereo not given): the IC50 is 15.9 µM. On to `c1ccc(-c2nc(-n3ccnc3)nc(-n3ccnc3)n2)cc1`, for which the IC50 is > 79 µM (inactive). Next, `COc1cccc(-c2cnc3c(NC=O)cc(-c4cc(C)c(O)c(C)c4)cn23)c1`: 4.55 µM; `COc1cc(-c2cnc3c(NC=O)cc(-c4cccnc4)cn23)cc(OC)c1OC`: 16.9 µM. Take `COc1ccc2[nH]c(=O)c(CN(Cc3cccnc3)S(=O)(=O)c3ccccc3F)cc2c1`: the IC50 is > 79 µM (inactive). `COc1ccc(C(=O)Nc2cccc(/C(C)=N/NC(=O)c3ccc([N+](=O)[O-])c(C)c3)c2)cc1OC`: the IC50 is > 79 µM (inactive).

As to `CCOC(=O)C1CCN(c2cc3c(cc2NC(=O)c2ccccc2Cl)n(C)c(=O)n3C)CC1`, the IC50 was > 79 µM (inactive). As for `CC(C)(C)OC(=O)CNC(=O)c1[nH]cnc1C(=O)NCC(=O)OCc1ccccc1`, the IC50 was 28.2 µM (inactive). With `O=C(CN(c1ccc2c(c1)OCCO2)S(=O)(=O)c1ccccc1)Nc1ccc2c(c1)OCO2`, the IC50 was > 79 µM (inactive). For `COc1cc(-c2cc(C(=O)Nc3cccc(C(C)=O)c3)c3ccccc3n2)cc(OC)c1OC`, the IC50 was 3.99 µM.

Regarding `COc1ccc2c(c1OC)C(=O)N1c3ccccc3C(=O)N(c3ccccc3)C21` (stereo not given), the IC50 is > 79 µM (inactive). As for `CC(C)(C)NC(=O)c1cc(NC(=O)c2cccs2)cc(NC(=O)c2cccs2)c1`, the IC50 was > 79 µM (inactive). Take `COc1ccc(C(C(=O)NCc2ccccc2)N(Cc2ccco2)C(=O)c2snc(C(N)=O)c2N)cc1` (stereo not given): the IC50 was 44.1 µM (inactive). In the case of `COc1ccc(CCNc2nc(-c3cccnc3)nc3ccccc23)cc1OC` it was > 79 µM (inactive); in that of `Cc1cccc(NC(=O)c2nc[nH]c2C(=O)NCCCCNC(=O)c2[nH]cnc2C(=O)Nc2cccc(C)c2)c1`, > 79 µM (inactive); in that of `COc1ccc(NC(=O)c2cc(-c3ccccn3)nc3ccccc23)cc1S(=O)(=O)N(C)C`, > 79 µM (inactive). For the compound `Cc1[nH]c2ccccc2c1/C=N/NC(=O)c1cc(-c2ccccc2)n[nH]1`, the IC50 was > 79 µM (inactive). With `CNC(=O)COC(=O)/C=C/c1cn(-c2ccccc2)nc1-c1ccc(C)o1`, the IC50 is 37.1 µM (inactive). On to `COc1cccc(Nc2nc3ccccc3n3cnnc23)c1`, for which the IC50 is > 79 µM (inactive).

For the compound `CCOC(=O)c1c(C)[nH]c(C)c1C(=O)COc1ncnc2cc([N+](=O)[O-])ccc12`, the IC50 was > 79 µM (inactive). In the case of `N#C/C(=C\Nc1ccc2c(c1)OCCO2)c1nc2ccccc2[nH]1`, the IC50 was > 79 µM (inactive).

In general, IC50 refers to the concentration at which inhibition is half-maximal.

The values above are taken from PubChem BioAssay AID602215 (Sanford-Burnham Center for Chemical Genomics, 2012).
